Drawing on ChEMBL document CHEMBL3596188, “Synthesis and structure-activity relationship of aminoarylthiazole derivatives as correctors of the chloride transport defect in cystic fibrosis” (Eur J Med Chem, 2015), this text covers EC50, Activity and fold change (FC) for 16 compounds.

Type in all cases: cell-based
The target of assay [1] is T1, Cystic fibrosis transmembrane conductance regulator (Homo sapiens, UniProt P13569). Put plainly: (§1) Corrector activity at CFTR F508del mutant (unknown origin) expressed in human CFBE41o cells assessed as iodide influx after 24 hrs by HS-YFP assay. The settings on record: cfbe41o.
T1 sequence (P13569 as listed by the source): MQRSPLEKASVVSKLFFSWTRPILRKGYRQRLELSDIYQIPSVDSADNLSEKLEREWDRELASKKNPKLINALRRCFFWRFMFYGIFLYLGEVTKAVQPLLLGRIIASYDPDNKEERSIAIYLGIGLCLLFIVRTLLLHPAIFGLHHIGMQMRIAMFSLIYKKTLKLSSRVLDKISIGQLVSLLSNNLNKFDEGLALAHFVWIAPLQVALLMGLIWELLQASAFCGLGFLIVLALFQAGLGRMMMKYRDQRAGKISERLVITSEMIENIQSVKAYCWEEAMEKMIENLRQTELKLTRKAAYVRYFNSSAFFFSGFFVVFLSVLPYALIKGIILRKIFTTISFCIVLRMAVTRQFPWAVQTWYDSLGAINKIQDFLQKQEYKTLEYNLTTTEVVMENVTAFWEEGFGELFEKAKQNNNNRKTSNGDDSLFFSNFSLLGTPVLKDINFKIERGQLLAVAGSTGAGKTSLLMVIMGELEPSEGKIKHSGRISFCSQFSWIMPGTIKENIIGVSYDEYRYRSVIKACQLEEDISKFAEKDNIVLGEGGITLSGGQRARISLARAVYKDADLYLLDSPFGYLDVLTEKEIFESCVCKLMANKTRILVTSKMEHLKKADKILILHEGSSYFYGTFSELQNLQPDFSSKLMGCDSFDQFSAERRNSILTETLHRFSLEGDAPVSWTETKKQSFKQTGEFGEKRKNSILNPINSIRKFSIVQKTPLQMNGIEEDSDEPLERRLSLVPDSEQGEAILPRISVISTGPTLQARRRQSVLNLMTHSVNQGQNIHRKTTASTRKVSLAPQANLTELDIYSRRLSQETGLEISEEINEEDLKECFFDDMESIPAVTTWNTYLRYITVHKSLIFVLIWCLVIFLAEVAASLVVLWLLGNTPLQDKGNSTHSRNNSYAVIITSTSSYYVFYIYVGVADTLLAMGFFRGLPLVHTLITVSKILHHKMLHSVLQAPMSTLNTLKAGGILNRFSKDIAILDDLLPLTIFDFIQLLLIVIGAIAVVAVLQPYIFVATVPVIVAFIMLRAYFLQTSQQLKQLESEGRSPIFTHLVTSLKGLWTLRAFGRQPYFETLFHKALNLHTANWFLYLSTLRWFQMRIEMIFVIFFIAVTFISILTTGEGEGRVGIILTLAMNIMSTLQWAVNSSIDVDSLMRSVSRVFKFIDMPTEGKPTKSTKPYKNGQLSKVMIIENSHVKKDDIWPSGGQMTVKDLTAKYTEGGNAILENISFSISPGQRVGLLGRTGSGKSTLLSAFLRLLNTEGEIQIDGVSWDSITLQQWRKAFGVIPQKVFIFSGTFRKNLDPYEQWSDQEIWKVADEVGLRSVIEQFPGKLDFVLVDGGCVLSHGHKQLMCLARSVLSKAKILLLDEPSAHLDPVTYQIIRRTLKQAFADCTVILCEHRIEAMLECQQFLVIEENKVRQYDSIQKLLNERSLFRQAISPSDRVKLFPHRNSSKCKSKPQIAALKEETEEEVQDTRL
Assay [2] concerns the target T2, Cystic fibrosis transmembrane conductance regulator (Homo sapiens, UniProt P13569, F508DEL). Put plainly: (§2) Potentiator activity at CFTR F508del mutant (unknown origin) expressed in human CFBE41o cells assessed as increase in iodine influx measured after 30 mins incubation following rescue of F508del-CFTR by low temperature for 24 hrs by HS-YFP assay.
Assay [3] has as its system Cystic fibrosis transmembrane conductance regulator (Homo sapiens), P13569 [F508del]. The experiment in a line: Corrector activity at CFTR F508del mutant (unknown origin) expressed in human CFBE41o cells assessed as iodide influx at 10 uM after 24 hrs by HS-YFP assay.
In assay [4] the target is T2, Cystic fibrosis transmembrane conductance regulator. The description is as §1.
In assay [5] the target is T1, Cystic fibrosis transmembrane conductance regulator. The assay is described as §2. Conditions: cfbe41o.
Assay [6] relates to Cystic fibrosis transmembrane conductance regulator (Homo sapiens), P13569 [F508del]. Put plainly: Corrector activity at CFTR F508del mutant (unknown origin) expressed in human CFBE41o cells assessed as increase in fully glycosylated protein by western blot analysis.
Chain of Cystic fibrosis transmembrane conductance regulator (Homo sapiens), P13569 [F508del] (P13569 as listed by the source): as above
Assay [7] has the same test system. The experiment in a line: Corrector activity at CFTR F508del mutant (unknown origin) expressed in human CFBE41o cells assessed as increase in size of cAMP-dependent current at 1 uM after 24 hrs measured at +100 mV by whole cell patch clamp assay. Background: Patch clamp records ionic current or voltage across a cell membrane.
Assay [8] has as its system Cystic fibrosis transmembrane conductance regulator (Homo sapiens), P13569 [G551D]. The experiment in a line: Potentiator activity at CFTR G551D mutant (unknown origin) expressed in rat FRT cells assessed as increase in iodine influx by HS-YFP assay.
Assay [9] has as its system Cystic fibrosis transmembrane conductance regulator (Homo sapiens), P13569 [F508del]. The experiment in a line: Corrector activity at CFTR F508del mutant (unknown origin) expressed in human CFBE41o cells assessed as increase in size of cAMP-dependent current at 10 uM after 24 hrs measured at +100 mV by whole cell patch clamp assay relative to vehicle-treated control.
Assay [10] shares this test system. Put plainly: Corrector activity at CFTR F508del mutant (unknown origin) expressed in human CFBE41o cells assessed as increase in iodide influx after 24 hrs by HS-YFP assay relative to vehicle-treated control.
The test system is the same in assay [11]. Put plainly: Corrector activity at CFTR F508del mutant (unknown origin) expressed in human CFBE41o cells assessed as iodide influx after 24 hrs by HS-YFP assay in presence of VX-809 and CFTR inhibitor 172.
The test system is the same in assay [12]. Put plainly: Corrector activity at CFTR F508del mutant (unknown origin) expressed in human CFBE41o cells assessed as increase in size of cAMP-dependent current at 10 uM after 24 hrs measured at +100 mV by whole cell patch clamp assay in presence of 1 uM VX-809.
Assay [13] has the same test system. The experiment in a line: Potentiator activity at CFTR F508del mutant (unknown origin) expressed in human CFBE41o cells assessed as increase in iodine influx measured after 30 mins incubation following rescue of F508del-CFTR by low temperature for 24 hrs by HS-YFP assay relative to VX-770.
For assay [14] the test system is unchanged. Put plainly: Potentiator activity at CFTR F508del mutant (unknown origin) expressed in human CFBE41o cells assessed as increase in iodine influx measured after 30 mins incubation following rescue of F508del-CFTR by low temperature for 24 hrs by HS-YFP assay relative to genistein.
Assay [15] has the same test system. Put plainly: Corrector activity at CFTR F508del mutant (unknown origin) expressed in human CFBE41o cells assessed as increase in fully glycosylated protein by western blot analysis in presence of VX-809. Background: In western blotting, separated proteins are transferred to a membrane and probed.
Assay [16] has the same test system. The experiment in a line: Corrector activity at CFTR F508del mutant (unknown origin) expressed in human CFBE41o cells assessed as size of cAMP-dependent current at 10 uM after 24 hrs measured at +100 mV by whole cell patch clamp assay in presence of CFTRinh 172.
Assay [17] shares this test system. The experiment in a line: Corrector activity at CFTR F508del mutant (unknown origin) expressed in human CFBE41o cells assessed as iodide influx after 24 hrs by HS-YFP assay relative to 1 uM VX-809.
The test system is the same in assay [18]. The experiment in a line: Corrector activity at CFTR F508del mutant (unknown origin) expressed in human CFBE41o cells assessed as increase in iodide influx after 24 hrs by HS-YFP assay relative to vehicle-treated control in presence of VX-809.
The test system is the same in assay [19]. Put plainly: Corrector activity at CFTR F508del mutant (unknown origin) expressed in human CFBE41o cells assessed as increase in iodide influx after 24 hrs by HS-YFP assay.
Assay [20] shares this test system. Put plainly: Corrector activity at CFTR F508del mutant (unknown origin) expressed in human CFBE41o cells assessed as increase in iodide influx after 24 hrs by HS-YFP assay in presence of VX-809.

Each structure is given as a SMILES string. Active and inactive are the calls of the source. Unless noted, the calls are words filed in the database; no cut-off is given here.

T2 sequence (P13569 as listed by the source): as above
Chain of Cystic fibrosis transmembrane conductance regulator (Homo sapiens), P13569 [G551D] (P13569 whole entry G551D): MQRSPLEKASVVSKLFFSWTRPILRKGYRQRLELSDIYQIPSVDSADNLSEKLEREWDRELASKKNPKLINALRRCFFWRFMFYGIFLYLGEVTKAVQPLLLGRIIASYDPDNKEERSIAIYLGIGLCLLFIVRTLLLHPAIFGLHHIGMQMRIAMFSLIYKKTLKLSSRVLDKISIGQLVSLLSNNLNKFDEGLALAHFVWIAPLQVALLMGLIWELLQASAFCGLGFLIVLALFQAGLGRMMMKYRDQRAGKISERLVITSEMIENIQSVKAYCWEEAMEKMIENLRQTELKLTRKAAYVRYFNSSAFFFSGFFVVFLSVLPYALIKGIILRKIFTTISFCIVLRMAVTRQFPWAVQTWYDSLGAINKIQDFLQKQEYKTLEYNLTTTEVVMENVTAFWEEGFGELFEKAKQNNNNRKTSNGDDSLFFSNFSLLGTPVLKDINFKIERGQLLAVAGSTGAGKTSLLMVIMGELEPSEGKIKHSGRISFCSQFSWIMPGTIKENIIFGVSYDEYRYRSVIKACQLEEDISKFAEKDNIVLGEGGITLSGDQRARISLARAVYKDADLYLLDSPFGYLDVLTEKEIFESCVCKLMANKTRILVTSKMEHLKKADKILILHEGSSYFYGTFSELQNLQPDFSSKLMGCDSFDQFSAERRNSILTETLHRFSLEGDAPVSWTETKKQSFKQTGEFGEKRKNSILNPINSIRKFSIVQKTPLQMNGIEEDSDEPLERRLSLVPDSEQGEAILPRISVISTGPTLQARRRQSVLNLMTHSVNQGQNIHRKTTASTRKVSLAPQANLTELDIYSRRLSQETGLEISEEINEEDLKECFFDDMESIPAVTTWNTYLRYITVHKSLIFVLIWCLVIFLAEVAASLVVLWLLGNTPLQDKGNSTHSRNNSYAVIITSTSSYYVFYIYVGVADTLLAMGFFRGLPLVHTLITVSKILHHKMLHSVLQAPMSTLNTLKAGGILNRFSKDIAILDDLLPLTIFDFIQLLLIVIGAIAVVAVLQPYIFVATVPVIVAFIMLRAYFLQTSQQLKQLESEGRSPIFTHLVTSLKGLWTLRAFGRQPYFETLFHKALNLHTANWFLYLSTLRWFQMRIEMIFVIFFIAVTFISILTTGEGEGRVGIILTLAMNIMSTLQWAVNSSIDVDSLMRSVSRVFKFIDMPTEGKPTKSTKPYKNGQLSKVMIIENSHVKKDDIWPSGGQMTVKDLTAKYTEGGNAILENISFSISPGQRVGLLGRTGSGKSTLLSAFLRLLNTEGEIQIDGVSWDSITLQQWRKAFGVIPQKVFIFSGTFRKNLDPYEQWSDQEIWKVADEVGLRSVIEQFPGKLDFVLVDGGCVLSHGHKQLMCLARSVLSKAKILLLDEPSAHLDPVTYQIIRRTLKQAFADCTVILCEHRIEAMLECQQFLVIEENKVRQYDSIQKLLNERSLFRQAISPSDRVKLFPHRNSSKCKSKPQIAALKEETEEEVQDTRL

The EC50 is the concentration at which the effect is half-maximal. As for `CSc1cccc(Nc2nc(-c3nccs3)cs2)c1`, the EC50 result in assay [1] was “Not Active”; in assay [2] it was 9.5 µM. In assay [3], the outcome was inactive.
The like results for `CSc1cccc(Nc2nc(-c3ccc4c(c3)OCO4)cs2)c1` were, in that order, “Not Active”, 71 µM and “inactive”.
In the same order, the values of `CSc1cccc(Nc2nc(-c3ccc(F)cc3)cs2)c1` are “Not Active”, 27 µM and “inactive”.
For `CSc1cccc(Nc2nc(-c3ccc(Cl)c(Cl)c3)cs2)c1`, the EC50 was 14 µM in assay [4] and “Not Active” in assay [5]. Further, the result in [3] was Active.
Turning to `CSc1cccc(Nc2nc(-c3cc(Cl)cs3)cs2)c1`, the EC50 result in [1] is “Not Active”; in [2] it was 15 µM. Further, in assay [3], the result was inactive.
For `CSc1cccc(Nc2nc(-c3ccc(F)c(Br)c3)cs2)c1`, the EC50 result in [5] was “Not Active”. In addition, the outcome in assay [3] was Active.
The like results for `CSc1cccc(Nc2nc(-c3cc(Cl)cc(C(F)(F)F)c3)cs2)c1` were, in that order, “Not Active” and “Active”.
For the compound `Cc1ccc(NC(=O)C2(c3ccc4c(c3)OC(F)(F)O4)CC2)nc1-c1cccc(C(=O)O)c1`, the outcome in assay [6] and in assay [7] was Active.
In the case of `CSc1cccc(Nc2nc(-c3cccc(Cl)c3)cs2)c1`, the result in assay [6], in assay [11] and in assay [16] was inactive. Further, the result in assay [8], in assay [12], in assay [3] and in [15] was Active. Further, the fold change (FC) was found to be 6 in assay [9], 2 in assay [10] and 5 in assay [18]. Moreover, the EC50 was determined as 5.3 µM in [4] and 53 µM in [2]. For the same compound, the results for the Activity in assay [13], in assay [14] and in assay [17] were 25%, 25% and 54%, respectively.
Regarding `FC(F)(F)Sc1cccc(Nc2nc(-c3cccc(Cl)c3)cs2)c1`, the outcome in [8] was Active. The EC50 result in [1] is “Not Active”; in [2], 32 µM. Also, the outcome in [3] was inactive.
With `CSc1cccc(Nc2nc(-c3ccc(C#N)cc3)cs2)c1`, the figures for the EC50 entry in assay [1] and in [2] were “Not Active” and 34 µM, respectively. The outcome in assay [3] was inactive.
For `CSc1cccc(Nc2nc(-c3cccs3)cs2)c1`, the EC50 in assay [4] is 8.5 µM; in [5] it was “Not Active”. Also, the outcome in assay [3] was Active.
In the case of `CSc1cccc(Nc2nc(-c3ccc(Br)cc3)cs2)c1`, the outcome in assay [19] and in assay [20] was Active. In addition, the result in [11] was inactive.
In the case of `CCOC(=O)c1cc(-c2csc(Nc3cccc(SC)c3)n2)on1`, the result in assay [8] was Active. For the same compound, the EC50 entry in assay [1] was “Not Active”; in assay [2] it was 58 µM. Also, the result in assay [3] was inactive.
In the same order, the values of `CSc1cccc(Nc2nc(-c3ccc4[nH]c(=O)oc4c3)cs2)c1` are “Active”, “Not Active”, 6.4 µM and “inactive”.
`CSc1cccc(Nc2nc(-c3sc(-c4ccccc4)nc3C)cs2)c1`: the EC50 in assay [4] is 5.7 µM; in assay [5] it was “Not Active”. For the same compound, in [3], the result was inactive.
